Results taken from BigSolDB 2.1.

O=C(O)c1ccc(CO)cc1
solubility (mole fraction)
Settings | in ethanol | in ethyl acetate | in ethyl formate | in isopropanol | in isopropyl acetate | in methanol | in n-butyl acetate | in n-propanol | in water
283.15 K | 0.0289 | 0.00475 | 0.00168 | 0.0268 | 0.00324 | 0.0282 | 0.00341 | 0.0236 | 0.000244
288.15 K | 0.0325 | 0.00528 | 0.00259 | 0.0294 | 0.00444 | 0.0323 | 0.00463 | 0.026 | 0.000254
293.15 K | 0.0367 | 0.00653 | 0.00319 | 0.0337 | 0.00481 | 0.0361 | 0.00508 | 0.0298 | 0.0003
298.15 K | 0.0414 | 0.00797 | 0.00396 | 0.0391 | 0.00599 | 0.0414 | 0.00622 | 0.0345 | 0.00039
303.15 K | 0.0468 | 0.00919 | 0.00431 | 0.044 | 0.00827 | 0.0473 | 0.00854 | 0.0367 | 0.000532
308.15 K | 0.0529 | 0.0109 | 0.00535 | 0.0523 | 0.00969 | 0.0535 | 0.01 | 0.0446 | 0.000641
313.15 K | 0.0599 | 0.0133 | 0.00704 | 0.0602 | 0.0113 | 0.0608 | 0.0117 | 0.0516 | 0.000816
318.15 K | 0.0678 | 0.0161 | 0.00773 | 0.0697 | 0.0127 | 0.0682 | 0.0132 | 0.0591 | 0.000993
323.15 K | 0.0768 | 0.0199 | 0.00889 | 0.0826 | 0.0155 | 0.078 | 0.0158 | 0.0705 | 0.00128
